Among the data in patent US6949571B2, “1,2-dihydropyridine compounds, process for preparation of the same and use thereof” (Eisai Co., Ltd., priority 2000, dated 2005) are IC50 values, retold here.

Structures are written as SMILES.

In general, IC50 refers to the concentration at which inhibition is half-maximal.
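Note: primary rat embryonic cortical neurons grown on an astrocyte layer in 96-well plates, used after at least 8 to 10 days in culture, Fura2-AM fluorescence ratio at 340/380 nm excitation.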

For the first experiment, the system named is AMPA receptor. Particulars: Table 2; suppression of AMPA-induced calcium influx into nerve cells.
For `O=c1c(-c2ccc([N+](=O)[O-])cc2)cc(-c2ccccn2)cn1-c1ccccc1` [Example 275, 3-(4-Nitrophenyl)-1-phenyl-5-(2-pyridyl)-1,2-dihydropyridin-2-one], the IC50 is 6100 nM.

For `N#Cc1ccccc1-c1cc(-c2ccccn2)cn(-c2cccc(OCc3ccccc3)c2)c1=O` [Example 276, 1-[3-(Benzyloxy)phenyl]-3-(2-cyanophenyl)-5-(2-pyridyl)-1,2-dihydropyridin-2-one], the half-inhibitory concentration (IC50) came to 1900 nM.

Regarding `CC(=O)c1cccc(-n2cc(-c3ccccn3)cc(-c3ccccc3C#N)c2=O)c1` [Example 277, 1-(3-Acetylphenyl)-3-(2-cyanophenyl)-5-(2-pyridyl)-1,2-dihydropyridin-2-one], the IC50 was 600 nM.

In the case of `CC(C)(C)NS(=O)(=O)c1ccc(-c2cc(-c3ccccn3)cn(-c3ccccc3)c2=O)cc1` [Example 278, 3-[4-(tert-Butylaminosulfonyl)phenyl]-1-phenyl-5-(2-pyridyl)-1,2-dihydropyridin-2-one], the concentration for half-maximal inhibition (IC50) is 2800 nM.

Take `O=c1c(-c2cccc3ccccc23)cc(-c2ccccn2)cn1-c1cccnc1` [Example 279, 3-(1-Naphthyl)-5-(2-pyridyl)-1-(3-pyridyl)-1,2-dihydropyridin-2-one]: the IC50 worked out at 3700 nM.

In the case of `O=c1c(-c2cccc3ccccc23)cc(-c2ccccn2)cn1-c1ccccc1` [Example 280, 3-(1-Naphthyl)-5-(2-pyridyl)-1-phenyl-1,2-dihydropyridin-2-one], the IC50 is 1300 nM.

Regarding `O=c1c(-c2cccc3cccnc23)cc(-c2ccccn2)cn1-c1ccccc1` [Example 282, 3-(8-Quinolinyl)-5-(2-pyridyl)-1-phenyl-1,2-dihydropyridin-2-one], the 50% inhibitory concentration (IC50) worked out at 9000 nM.

Consider `O=c1c(-c2ccc3ccccc3c2)cc(-c2ccccn2)cn1-c1ccccc1` [Example 284, 3-(2-Naphthyl)-5-(2-pyridyl)-1-phenyl-1,2-dihydropyridin-2-one], for which the IC50 was 2800 nM.

Consider `O=c1c(-c2ccc(N3CCCC3)nc2)cc(-c2ccccn2)cn1-c1ccccc1` [Example 285, 3-(2-Pyrrolidinopyridin-5-yl)-5-(2-pyridyl)-1-phenyl-1,2-dihydropyridin-2-one], for which the IC50 was 7200 nM.

As to `O=Cc1sccc1-c1cc(-c2ccccn2)cn(-c2ccccc2)c1=O` [Example 286, 3-(2-Formylthiophen-3-yl)-5-(2-pyridyl)-1-phenyl-1,2-dihydropyridin-2-one], the 50% inhibitory concentration (IC50) turned out to be 300 nM.

For the compound `O=c1c(-c2ccc(Cl)nc2)cc(-c2ccccn2)cn1-c1ccccc1` [Example 287, 3-(2-Chloropyridin-5-yl)-5-(2-pyridyl)-1-phenyl-1,2-dihydropyridin-2-one], the IC50 is 5600 nM.

On to `O=c1c(-c2ccc(F)nc2)cc(-c2ccccn2)cn1-c1ccccc1` [Example 288, 3-(2-Fluoropyridin-5-yl)-5-(2-pyridyl)-1-phenyl-1,2-dihydropyridin-2-one], for which the IC50 amounted to 1200 nM.

On to `N#Cc1ccccc1-c1cc(-c2ccccn2)cn(-c2ccc3ccccc3c2)c1=O` [Example 290, 3-(2-Cyanophenyl)-5-(2-pyridyl)-1-(2-naphthyl)-1,2-dihydropyridin-2-one], for which the 50% inhibitory concentration (IC50) amounted to 200 nM.

Take `N#Cc1ccccc1-c1cc(-c2ccccn2)cn(-c2cccc3ccccc23)c1=O` [Example 291, 3-(2-Cyanophenyl)-5-(2-pyridyl)-1-(1-naphthyl)-1,2-dihydropyridin-2-one]: the IC50 was 140 nM.

With `N#Cc1ccccc1-c1cc(-c2ccccn2)cn(-c2cccc3cccnc23)c1=O` [Example 292, 3-(2-Cyanophenyl)-5-(2-pyridyl)-1-(8-quinolinyl)-1,2-dihydropyridin-2-one], the IC50 came to 3300 nM.

As to `O=c1c(-c2cc3ccccc3n2S(=O)(=O)c2ccccc2)cc(-c2ccccn2)cn1-c1ccccc1` [Example 293, 3-[(1-Benzenesulfonyl)indol-2-yl]-1-phenyl-5-(2-pyridyl)-1,2-dihydropyridin-2-one], the IC50 was determined as 3300 nM.

For the compound `N#Cc1ncccc1-c1cc(-c2ccccn2)cn(-c2cccnc2)c1=O` [Example 294, 3-(2-Cyanopyridin-3-yl)-5-(2-pyridyl)-1-(3-pyridyl)-1,2-dihydropyridin-2-one], the IC50 was found to be 600 nM.

With `Cc1ccc(C)n1-c1cccc(-c2cc(-c3ccccc3C#N)c(=O)n(-c3ccccc3)c2)n1` [Example 297, 3-(2-Cyanophenyl)-5-[2-(2,6-dimethylpvrrol-1-yl)pyridin-6-yl]-1-phenyl-1,2-dihydropyridin-2-one], the half-inhibitory concentration (IC50) was found to be 4200 nM.

`N#Cc1ccccc1-c1cc(-c2ccc([N+](=O)[O-])cn2)cn(-c2ccccc2)c1=O` [Example 299, 3-(2-Cyanophenyl)-5-(5-nitropyridin-2-yl)-1-phenyl-1,2-dihydropyridin-2-one]: the IC50 stood at 4400 nM.

As to `N#Cc1ccccc1-c1cc(-c2cccc(Br)n2)cn(-c2ccccc2)c1=O` [Example 300, 5-(2-Bromopyridin-6-yl)-3-(2-cyanophenyl)-1-phenyl-1,2-dihydropyridin-2-one], the half-maximal inhibitory concentration (IC50) was found to be 300 nM.

The same experiment, now with this note: Table 3; primary culture of rat embryo cerebral cortex nerve cells, 2 μM AMPA, 1 μM MK-801.
On to `N#Cc1ccccc1-c1cc(-c2cccc(N3CCOCC3)n2)cn(-c2ccccc2)c1=O` [Example 302, 3-(2-Cyanophenyl)-5-(2-morpholinopyridin-6-yl)-1-phenyl-1,2-dihydropyridin-2-one], for which half-maximal inhibition (IC50) required 300 nM.

Take `COC(=O)c1cccc(-c2cc(-c3ccccc3C#N)c(=O)n(-c3ccccc3)c2)n1` [Example 303, 3-(2-Cyanophenyl)-5-(2-methoxycarbonylpyridin-6-yl)-1-phenyl-1,2-dihydropyridin-2-one]: half-maximal inhibition (IC50) required 900 nM.

In turn, `N#Cc1ccccc1-c1cc(NC(=O)Nc2ccccc2)cn(-c2ccccc2)c1=O` [Example 307, 3-(2-Cyanophenyl)-1-phenyl-5-[N-(N′-phenylureylenyl)]-1,2-dihydropyridin-2-one] showed an IC50 of 2000 nM.

As for `CCCCNC(=O)Nc1ccc(-c2cc(-c3ccccn3)cn(-c3ccccc3)c2=O)cc1` [Example 308, 3-{4[N-(N′-butylureylenyl)phenyl]}-1-phenyl-5-(2-pyridyl)-1,2-dihydropyridin-2-one], the midpoint of inhibition, the IC50, lay at 1600 nM.

On to `N#Cc1ccccc1-c1cc(NC(=O)c2ccccn2)cn(-c2ccccc2)c1=O` [Example 309, 3-(2-Cyanophenyl)-1-phenyl-5-(2-pyridincarbonyl)amino-1,2-dihydropyridin-2-one], for which half-maximal inhibition (IC50) required 4100 nM.

`N#Cc1ccccc1-c1cc(NCc2ccccc2)cn(-c2ccccc2)c1=O` [Example 313, 5-Benzylamino-3-(2-cyanophenyl)-1-phenyl-1,2-dihydropyridin-2-one] showed an IC50 of 5900 nM.

As for `O=c1c(N(Cc2ccccc2)Cc2ccccc2)cc(-c2ccccn2)cn1-c1ccccc1` [Example 314, 3-Dibenzylamino-1-phenyl-5-(2-pyridyl)-1,2-dihydropyridin-2-one], the IC50 is 4600 nM.

In the case of `N#Cc1ccccc1-c1cc(-c2ccccn2)cn(-c2cccc(O)c2)c1=O` [Example 315, 3-(2-Cyanophenyl)-1-(3-hydroxyphenyl)-5-(2-pyridyl)-1,2-dihydropyridin-2-one], half-maximal inhibition (IC50) required 80 nM.

`N#Cc1ccccc1-c1cc(-c2ccccn2)cn(COCc2ccccc2)c1=O` [Example 316, 1-Benzyloxymethyl-3-(2-cyanophenyl)-5-(2-pyridyl)-1,2-dihydropyridin-2-one] yielded an IC50 of 2100 nM.
